Assay results taken from paper PMC10791743, “Selective CK1α degraders exert antiproliferative activity against a broad range of human cancer cell lines” (Nature Communications, 2024).

Experiments:
[1] = Metabolic stability in cryopreserved hepatocytes, mouse; assay type: in vitro ADME; details: mouse, cryopreserved hepatocytes; read-out: Hepatocyte stability t1/2
Method: page 34: UHPLC-MS/MS System: Chromatographic separation was performed on an Acquity UPLC BEH […] with 6500+ Qtrap system. […] software suite. The UPLC column was maintained at 55 °C. Mobile phase A was 0.1% formic acid in MilliQ H2O and Mobile phase B was 0.1% formic acid in acetonitrile. The flow rate was 0.9 […] The mass spectrometer was operated in positive-ion mode with electrospray ionization. MRM transition m/z […] plasma stability and plasma protein binding. The following MS parameters were employed for analyte measurements: ion spray voltage 5 kV, temperature 550 °C, gas 1 and gas 2 were 60, entrance potential (EP): 10 V, declustering potential (DP): 50 V, collision energy (CE): 27 V, and collision cell exit potential (CXP): 16 V. Metabolic Stability in mouse and human cryopreserved hepatocytes. 10 mM test compounds were provided by Compound Sample Group. Diluted 10 mM test compounds and 30 mM positive control compounds (7-ethoxycoumarin) to 1 mM and 3 mM with DMSO in 96-well plates. Diluted 1 mM test compounds and 3 mM positive control compounds to 100 μM and 300 μM dosing solutions with ACN. Cryopreserved cells were thawed, isolated and suspended in Incubation Medium, then diluted with pre-warmed Incubation Medium to 0.5 × 10^6cells/mL. Added 198 μL of pre-warmed cell suspensions in 96 -well plates. Transferred 125 μL of stop solution (acetonitrile containing 200 ng/mL tolbutamide and 200 ng/mL labetalol as internal standards) in a set of pre- labeled 96-well plates. Spike d 2 μL dosing solution to each well of 96 -well plates in duplicates. For T0 Samples, mix ed to achieve a homogenous suspension for about 1 min, then immediately transferred 25 μL of each sample into well containing 125 μL of ice -cold stop solution followed by mixing. Incubated all plates at 37°C in a 95% humidified incubator at 5% CO 2 to start the reactions page 35: with constant shaking at about 600 rpm. At 15, 30, 60 and 90 min, mixed samples and then transferred 25 μL of each sample at each time point to well containing 125 μL of ice -cold stop solution followed by mixing. Medium Control (MC) sample plates (labeled as T0-MC and T90- MC) were prepared at T0 and T90 by adding the same components to each well except cell suspensions. At each corresponding time point, stopped the reactions by removing the plates from incubator and mixing with 125 μL of ice-cold stop solution. Vortexed the plates immediately on a plate shaker at 500 rpm for 10 minutes. Then, centrifuge d all sample plates at 3220 x g for 20 min at 4°C. After centrifugation, 80 μL/well of supernatant in the sample plates were transferred to another set of pre-labeled 96-well plates which containing 240 μL of ultra pure water according to the plate map. Analytical plates were sealed and stored at 4°C until LC-MS/MS analysis. Thawing Medium: Williams' Medium E containing 5% fetal bovine serum and 30% Perc oll solution and other supplements. Incubation Medium: Williams' Medium E (no phenol red) containing 2 mM L-Glutamine and 25 mM HEPES. Stop Solution: Acetonitrile containing 200 ng/mL tolbutamide and labetalol as internal standards. Dilution Solution: Ultra-pure water. The remaining percents of test articles after incubation were calculated by the follow equations: Equation ( 6): Use equation of first order kinetics [NT] […] The data was […] concatenated with a reversed decoy database for evaluating False Discovery Rate (FDR). […]

[2] = tested on: MOLM-13 cells; assay: Lenalidomide competition assay (40 μM lenalidomide), MOLM-13 viability; assay type: cell-based, human; details: lenalidomide 40 μM
Method: Having identified SJ7095 as a compound with a potent antiproliferative effect in MOLM-13 cells, we next examined whether the observed effect was CRBN-dependent. […] In an orthogonal approach, we tested SJ7095 in wild-type and CRBN-knockout MOLM-13 cells in a cell viability assay (Supplementary Fig. 1b).
MOLM-13 cells were plated in Corning 8804BC white 384-well assay plates at the appropriate cell number per well and incubated overnight at 37 °C in a humidified 5 % CO2 incubator. Compounds were transferred to the assay plate from a dose-response plate using a Labcyte Echo 650 Acoustic Liquid Handler (Beckman Coulter , USA). Cytotoxicity was determined following 72 h of incubation using Promega’s CellTiter-Glo reagent according to the manufacturer’s recommendation.
Luminescence was measured on the Envision plate reader (PerkinElmer, USA). Raw luminescence relative light unit (RLU) values for each compound at each concentration were normalized to obtain % activity using the following equation (1): 100 × [(mean(negctrl) – compound)/(mean (negctrl) – mean (posctrl))]. The % activity was converted to % viability using the following equation (2):
(100 – % activity), and then pooled from replicate experiments prior to fitting. Here, negctrl and posctrl refer to the negative (DMSO) and positive controls (staurosporine) on each plate. […]

With `O=C1CCC(N2Cc3cc(Nc4noc5ccccc45)ccc3C2=O)C(=O)N1` (centres unmarked) [SJ3149] the half-life at 1 µM [1] was > 3.6 h.
For `O=C1CCC(N2Cc3c(CNC(=O)c4ccc(F)cc4)cccc3C2=O)C(=O)N1` (centres unmarked) [SJ7095], the “Antiproliferative effect in presence of excess lenalidomide” value [2] was “abrogating the antiproliferative effects”.
